Patent US20250163072A1, “MACROCYCLIC COMPOUNDS FOR THE TREATMENT OF CANCER” (Hoffmann-La Roche Inc., priority 2021, published 2025)

Experiments:
[1] = biological target: KRAS G12V binding to BRAF (Homo sapiens (Human), UniProt P01116+P62937, G12V); experiment: KRAS-BRAF with CYPA (50 nM) interaction assay (TR-FRET), G12V; conditions: GMPPNP loaded 6His-KRAS, GST-BRAF RBD
Description: (§1) In this example, TR-FRET was also used to measure the compound or compound-CYPA dependent disruption of the KRAS G12C-BRAF complex. This protocol was also used to measure disruption of KRAS G12D or KRAS G12V binding to BRAF by a compound of the invention, respectively. In assay buffer containing 25 mM HEPES PH=7.4 (4-(2-hydroxyethyl)-1-piperazineethanesulfonic acid, Thermo, 15630080), 0.002% Tween20, 0.1% BSA, 100 mM NaCl, 5 mM MgCl2, 10 μM GMPPNP (Guanosine 5'-[β,γ-imido]triphosphate trisodium salt hydrate, Sigma, G0635), tagless CYPA, GMPPNP loaded 6His-KRAS proteins, and GST-BRAF^RBD were mixed in a well of a 384-well assay plate at final concentrations of 50 nM, 6.25 nM and 1 nM, respectively. Compound was present in plate wells as a 16-point 3-fold dilution series starting at a final concentration of 10 μM and incubated for 3 hours. A mixture of MAb Anti-6His-XL665 (Cisbio, 61HISXLB) and Mab anti-GST-TB cryptate (Cisbio, 61GSTTLB) was then added at a final concentration of 6.67 nM and 0.21 nM, respectively, and the plate was incubated for an additional 1.5 hours. TR-FRET signal was read on a […] microplate reader (Ex320 nm, Em 665/615 nm). Compounds that facilitate disruption of the KRAS-BRAF complex were identified as those eliciting a decrease in the TR-FRET ratio relative to DMSO control wells.

[2] = test system: AGS cells; experiment: Cell viability assay, AGS; format: cell-based, human; conditions: Homo sapiens, 72 hours, Cell Counting Kit-8, read-out: G12D IC50
Summary of the method: (§2)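 Cells were plated at 5,000 (NCI-H358) or 2,000 (AGS, SW620) per well and incubated overnight. They were then treated with compound in 0.5% DMSO for 72 h. Viability was read with CCK-8 as OD450 minus OD650 after 2 h, and IC50 came from a 4-parameter sigmoidal fit.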

[3] = test system: SW620 cells; experiment: Cell viability assay, SW620; format: cell-based, human; conditions: Homo sapiens, SW-620, SW620, 72 hours, Cell Counting Kit-8, read-out: G12V IC50
Summary of the method: as §2

[4] = test system: KRAS G12D in AGS cells; experiment: pERK inhibition assay, AGS; format: cell-based, human; conditions: Homo sapiens, 4 hours incubation
Summary of the method: (§3)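 NCI-H358, AGS and SW620 cells in RPMI-1640/10% FBS were plated overnight, then exposed to compound (0.5% DMSO final) for 4 h. After fixation and permeabilization, phospho-ERK was quantified by in-cell ELISA (HRP secondary, TMB, OD450); IC50 from a 4-parameter sigmoidal fit.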

[5] = biological target: T1, KRAS G12C-BRAF complex (Homo sapiens (Human), UniProt P01116+P62937, G12C); experiment: KRAS G12C-BRAF NanoBit assay; format: cell-based; conditions: HEK293 cells, SmBit-KRAS G12C and BRAF RBD-LgBit, 3 hours incubation
Description: This assay is to measure the ability of tested compounds in disruption of the KRAS G12C-BRAF complex at the cellular level, we established the NanoBit cellular assay in mammalian HEK293 (ATCC) cells. HEK293 cells were grown and maintained using DMEM medium (Thermo Fisher Scientific) with 10% fetal bovine serum and 1% penicillin/streptomycin. Both KRAS G12C and BRAF RBD were cloned into the NanoBit vectors ([…] vectors system, Promega) with the orientations SmBit-KRAS G12C and BRAF RBD-LgBit, respectively, and co-transfected into HEK293 cells. Cells were then selected with 100 μg/mL Hygromycin B (10687010, Thermo Fisher) and Blasticidin (5 μg/mL) for 4 weeks to get the stable cell pool. On the day of the assay, 75 nL of compound solution was presented in a 384-well assay plate as a 16-point 3-fold dilution starting from a final concentration of 30 μM in DMSO. Then cells were seeded at 10,000 cells/25 μL/well in a 384-well plate. After 3 hours of incubation, 6 μL of volume of Nano-Glo® Live Cell Substrate (Promega) was added into each well. Monitor luminescence using ultra384 model in Envision at 20 minutes. Compounds that facilitate disruption of the KRAS G12C-BRAF RBD complex were identified as those eliciting a decrease of luminescence relative to DMSO control wells.

[6] = test system: NCI-H358 cells; experiment: Cell viability assay, NCI-H358; format: cell-based, human; conditions: Homo sapiens, NCI-H358, 72 hours, Cell Counting Kit-8, read-out: G12C IC50
Summary of the method: as §2

[7] = test system: KRAS G12C in NCI-H358 cells; experiment: pERK inhibition assay, NCI-H358; format: cell-based, human; conditions: Homo sapiens, 4 hours incubation
Summary of the method: as §3

[8] = biological target: T1, KRAS G12C-BRAF complex; experiment: KRAS-BRAF with CYPA (50 nM) interaction assay (TR-FRET), G12C; format: binding; conditions: GMPPNP loaded 6His-KRAS, GST-BRAF RBD
Description: as §1

[9] = test system: KRAS G12V in SW620; experiment: pERK inhibition assay, SW620; format: cell-based, human; conditions: Homo sapiens, SW-620, SW620 cells, 4 hours incubation
Summary of the method: as §3

[10] = biological target: KRAS G12D binding to BRAF (Homo sapiens (Human), UniProt P01116+P62937, G12D); experiment: KRAS-BRAF with CYPA (50 nM) interaction assay (TR-FRET), G12D; conditions: GMPPNP loaded 6His-KRAS, GST-BRAF RBD
Description: as §1

[11] = GSH reaction rates (inherent GSH reactivity); format: in vitro ADME; conditions: for T1/2(hour) in GSH: potassium phosphate buffer pH 7.4
Description: Therefore Strategy to minimize the GSH metabolism is very critical. Short T1/2 in inherent GSH reaction indicated high GSH reaction rate. Thus T1/2 in inherent GSH reaction assay was determined for the screening of candidates. Reference compounds and compounds of this invention potentially could form conjugation with GSH either through halogenated moieties substitution reaction or direct Michael addition reaction. This test was therefore performed to check GSH reactivity of listed compounds. For inherent GSH reactivity determination, compounds at 1 μM were incubated at 37° C. with and without 5 mM GSH for 0, 0.5, 1, 2, 4 and 6 h in 100 mM potassium phosphate buffer at pH 7.4. At the end of the designated time points, samples were quenched with acetonitrile containing 10 mM N-ethylmaleimide and an internal standard. Quenched samples were centrifuged, and supernatants were analyzed by LC-MS/MS for compound quantification.

[12] = Human hepatocytes stability assay; format: in vitro ADME; conditions: for CL_hep (Human): 1 μM compound, human hepatocytes 1×10^6 cells/mL; for Clearance Category: human hepatocytes
Description: The hepatocyte stability assay measures the rate of disappearance of a compound from incubations with cryopreserved suspension hepatocytes from human. Positive controls, including Midazolam, Raloxifene and Dextromethorphan, are included in every experiment. Incubations consist of 1 μM tested compound and suspension of human hepatocytes (1×10^6 cells/mL) in supplemented Williams' E Medium with […] and 0.5% Penicillin-streptomycin. The hepatocyte suspension was incubated with intermittent shaking 900 rpm at 37° C., in a 5% CO2 incubator. The reaction was stopped by adding methanol containing internal standard (2 μM Tolbutamide) at 2, 10, 20, 40, 60 and 120 minutes after compound addition, depletion of the parent compound was monitored by LC-MS/MS analysis.

[13] = 1 μM compound, 5 mM GSH, 37° C., pH 7.4, 6 hr
[14] = 1 μM compound, 5 mM GSH, 37° C.

T1 sequence (P01116-2 other isoform, or with tags, fused parts or gaps G12C): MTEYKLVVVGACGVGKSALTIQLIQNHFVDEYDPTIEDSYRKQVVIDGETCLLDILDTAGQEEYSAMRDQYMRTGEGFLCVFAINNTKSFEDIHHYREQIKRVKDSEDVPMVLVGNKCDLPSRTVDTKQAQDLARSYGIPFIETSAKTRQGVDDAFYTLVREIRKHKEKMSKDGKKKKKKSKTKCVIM
T1 sequence (P62937 whole entry): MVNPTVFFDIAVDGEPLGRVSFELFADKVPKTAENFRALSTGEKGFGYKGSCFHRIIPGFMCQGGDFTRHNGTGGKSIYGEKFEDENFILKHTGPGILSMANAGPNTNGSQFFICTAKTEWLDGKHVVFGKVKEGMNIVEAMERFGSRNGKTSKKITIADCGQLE
Sequence of KRAS G12D binding to BRAF (P01116-2 other isoform, or with tags, fused parts or gaps G12D): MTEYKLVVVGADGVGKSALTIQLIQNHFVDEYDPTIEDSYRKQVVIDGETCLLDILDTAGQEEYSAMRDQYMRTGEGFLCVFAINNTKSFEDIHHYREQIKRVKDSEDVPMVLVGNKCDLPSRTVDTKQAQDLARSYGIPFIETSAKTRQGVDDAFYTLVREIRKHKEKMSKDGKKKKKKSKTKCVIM
Sequence of KRAS G12D binding to BRAF (P62937 whole entry): as the sequence (P62937 whole entry) above
Sequence of KRAS G12V binding to BRAF (P01116-2 other isoform, or with tags, fused parts or gaps G12V): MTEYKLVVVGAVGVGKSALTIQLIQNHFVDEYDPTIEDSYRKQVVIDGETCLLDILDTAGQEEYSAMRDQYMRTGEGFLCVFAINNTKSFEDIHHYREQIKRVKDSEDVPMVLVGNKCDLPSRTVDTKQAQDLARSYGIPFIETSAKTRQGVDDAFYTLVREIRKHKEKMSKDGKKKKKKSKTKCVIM
Sequence of KRAS G12V binding to BRAF (P62937 whole entry): as the sequence (P62937 whole entry) above

SMILES: CCn1c(-c2cc(N3CCN(C)CC3)cnc2[C@H](C)OC)c2c3cc(ccc31)-c1csc(n1)C[C@H](NC(=O)[C@H](C(C)C)N1CCCC3(CCN(C(=O)[C@H](F)Cl)C3)C1=O)C(=O)N1CCC[C@H](N1)C(=O)OCC(C)(C)C2 (stereo partly drawn) [Example 18, (2S)-2-[2-[(2R)-2-chloro-2-fluoro-acetyl]-6-oxo-2,7-diazaspiro[4.5]decan-7-yl]-N-[(7S,13S)-21-ethyl-(20M)-20-[2-[(1S)-1-methoxyethyl]-5-(4-methylpiperazin-1-yl)-3-pyridyl]-17,17-dimethyl-8,14-dioxo-15-oxa-4-thia-9,21,27,28-tetrazapentacyclo[17.5.2.12,5.19,13.022,26]octacosa-1(25),2,5(28),19,22(26),23-hexaen-7-yl]-3-methyl-butanamide]
- IC50 [1]: > 10 µM
- IC50 [2]: 0.019 µM
- IC50 [3]: 0.026 µM
- IC50 [4]: 0.026 µM
- IC50 [5]: 0.02 µM
- IC50 [6]: 0.0007 µM
- IC50 [7]: 0.003 µM
- IC50 [8]: 0.068 µM
- IC50 [9]: 0.028 µM
- IC50 [10]: > 10 µM

SMILES: CO[C@@H](C)c1ncc(N2CCN(C)CC2)cc1-c1c2c3cc(ccc3n1CC(F)(F)F)-c1csc(n1)C[C@H](NC(=O)[C@H](C(C)C)N(C)C(=O)[C@H]1CCN(C(=O)[C@H](F)Cl)C1)C(=O)N1CCC[C@H](N1)C(=O)OCC(C)(C)C2 (atropisomer, axis not shown; (M)) [Example 21, (3S)-1-[(2R)-2-chloro-2-fluoro-acetyl]-N-[(1S)-1-[[(7S,13S)-(20M)-20-[2-[(1S)-1-methoxyethyl]-5-(4-methylpiperazin-1-yl)-3-pyridyl]-17,17-dimethyl-8,14-dioxo-21-(2,2,2-trifluoroethyl)-15-oxa-4-thia-9,21,27,28-tetrazapentacyclo[17.5.2.12,5.19,13.022,26]octacosa-1(25),2,5(28),19,22(26),23-hexaen-7-yl]carbamoyl]-2-methyl-propyl]-N-methyl-pyrrolidine-3-carboxamide]
- Remaining at 6 hr in GSH (%) [11, 13]: 88%
- T1/2(hour) in GSH [11, 14]: stable (If % depletion after 6 hour incubation is less than 20%, compounds were reported as stable)
- IC50 [1]: > 10 µM
- IC50 [2]: 0.044 µM
- CL_hep (Human) [12]: <2.4 mL/min/kg
- Clearance Category [12]: low (CL_hep (mL/min/kg)<6.96 is low clearance)
- IC50 [3]: 0.008 µM
- IC50 [4]: 0.014 µM
- IC50 [6]: 0.0003 µM
- IC50 [7]: 0.001 µM
- IC50 [8]: 0.021 µM
- IC50 [9]: 0.005 µM
- IC50 [10]: > 10 µM

SMILES: CO[C@@H](C)c1ncc(N2CCN(C)CC2)cc1-c1c2c3cc(ccc3n1CC(F)(F)F)-c1csc(n1)C[C@H](NC(=O)[C@H](C(C)C)N1CCCC3(CCN(C(=O)[C@H](F)Cl)C3)C1=O)C(=O)N1CCC[C@H](N1)C(=O)OCC(C)(C)C2 (stereo partly drawn) [Example 19, (2S)-2-[2-[(2R)-2-chloro-2-fluoro-acetyl]-6-oxo-2,7-diazaspiro[4.5]decan-7-yl]-N-[(7S,13S)-(20M)-20-[2-[(1S)-1-methoxyethyl]-5-(4-methylpiperazin-1-yl)-3-pyridyl]-17,17-dimethyl-8,14-dioxo-21-(2,2,2-trifluoroethyl)-15-oxa-4-thia-9,21,27,28-tetrazapentacyclo[17.5.2.12,5.19,13.022,26]octacosa-1(25),2,5(28),19,22(26),23-hexaen-7-yl]-3-methyl-butanamide]
- Remaining at 6 hr in GSH (%) [11, 13]: 85%
- T1/2(hour) in GSH [11, 14]: stable (If % depletion after 6 hour incubation is less than 20%, compounds were reported as stable)
- IC50 [2]: 0.018 µM
- CL_hep (Human) [12]: 10.1 mL/min/kg
- Clearance Category [12]: medium (16.24<CL_hep (mL/min/kg)>6.96 is medium clearance)
- IC50 [3]: 0.015 µM
- IC50 [4]: 0.028 µM
- IC50 [5]: 0.021 µM
- IC50 [6]: 0.0009 µM
- IC50 [7]: 0.003 µM
- IC50 [9]: 0.008 µM

SMILES: CCn1c(-c2cc(N3CCN(C)CC3)cnc2[C@H](C)OC)c2c3cc(ccc31)-c1csc(n1)C[C@H](NC(=O)[C@H](C(C)C)N(C)C(=O)[C@H]1CCN(C(=O)[C@H](F)Cl)C1)C(=O)N1CCCC(N1)C(=O)OCC(C)(C)C2 (stereo partly drawn) [Example 10, (3S)-1-[(2R)-2-chloro-2-fluoro-acetyl]-N-[(1S)-1-[[(7S,13S)-21-ethyl-(20M)-20-[2-[(1S)-1-methoxyethyl]-5-(4-methylpiperazin-1-yl)-3-pyridyl]-17,17-dimethyl-8,14-dioxo-15-oxa-4-thia-9,21,27,28-tetrazapentacyclo[17.5.2.12,5.19,13.022,26]octacosa-1(25),2,5(28),19,22(26),23-hexaen-7-yl]carbamoyl]-2-methyl-propyl]-N-methyl-pyrrolidine-3-carboxamide]
- Remaining at 6 hr in GSH (%) ([11]; 6 h, 1 μM, pH 7.4): 85%
- IC50 [2]: 0.052 µM
- CL_hep (Human) [12]: <2.4 mL/min/kg
- Clearance Category [12]: low (CL_hep (mL/min/kg)<6.96 is low clearance)
- IC50 [3]: 0.059 µM
- IC50 [4]: 0.031 µM
- IC50 [5]: 0.021 µM
- IC50 [6]: 0.0004 µM
- IC50 [7]: 0.003 µM
- IC50 [9]: 0.011 µM
